The target in one assay is T1, PACAP-R2 (Homo sapiens, UniProt P32241).
T1 construct: expressed in transfected cells; host or cells: CHO cells
T1 sequence (P32241 31-457): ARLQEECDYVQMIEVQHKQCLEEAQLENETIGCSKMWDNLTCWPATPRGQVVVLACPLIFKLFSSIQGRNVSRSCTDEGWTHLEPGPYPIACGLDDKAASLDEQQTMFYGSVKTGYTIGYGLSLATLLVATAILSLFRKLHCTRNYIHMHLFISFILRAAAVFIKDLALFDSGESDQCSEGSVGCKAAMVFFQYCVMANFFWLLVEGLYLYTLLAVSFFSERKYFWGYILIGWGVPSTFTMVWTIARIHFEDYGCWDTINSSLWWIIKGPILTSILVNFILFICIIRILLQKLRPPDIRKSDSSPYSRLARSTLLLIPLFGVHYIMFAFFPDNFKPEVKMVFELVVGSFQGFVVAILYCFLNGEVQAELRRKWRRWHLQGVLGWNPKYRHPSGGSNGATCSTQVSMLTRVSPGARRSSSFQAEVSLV
Kind of assay: Cyclic AMP SPA on CHO cells transfected with PACAP-R2. Format: cell-based. The note with it: cAMP SPA, concentration at which 50% of maximum PACAP27 activity is achieved, NA = no detectable activities, read-out: R2 EC50. The essentials:
(§1)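 cAMP SPA readout; CHO stable lines, 24 h culture before use. Peptide treatment 15 min, 37 C, buffer with IBMX 100 uM plus trypsin inhibitor and bacitracin. EC50 = conc. reaching half of max PACAP27 response; R3 selectivity = EC50(R2)/EC50(R3).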

Assay [1] can be described thus: Airway hyperresponsiveness in the primate acute asthma model. The format is in vivo, cynomolgus monkeys (Macaca fascicularls). Conditions: for Delta log10 PC100, Mean, Treated: aerosol 10 minutes before Ascaris suum antigen challenge, +24 hr minus baseline, R3P0 0.6, R3P76 3.0, R3P82 1.8 ug/kg; for % Inhibition of induced AHR: treated vs control, R3P0 0.6, R3P76 3.0, R3P82 1.8 ug/kg by inhalation. The protocol:
Male cynomolgus monkeys (Macaca fascicularls) used in this study were maintained at constant temperature and humidity with a twelve hour light cycle. They were fed twice daily, except on an experimental day when food was withheld the night before the procedure. Water was available ad lib at all times.
Airway hyperresponsiveness (AHR)(baseline) was measured 1 week before the control (no treatment) antigen challenge, and again 24 hrs after antigen challenge. Antigen-induced airway hyperresponsiveness was measured by a fall in the PC100 (the concentration of methacholine required to cause a 100% increase in lung resistance) at 24 hr compared to baseline. After 2 weeks rest, another baseline measurement of AHR was performed. One week later, peptides of this invention were administered as an aerosol, 10 minutes before antigen challenge. After 24 hrs, AHR was again measured, and the fall in PC100 with treatment was compared to that without treatment.
Experimental Procedure. On each experimental day animals were anaesthetized with a ketamine/xylazine mixture (70:12 mg kg^−1 @ 0.1 ml kg^−1) while still in their cage. When unconscious they were brought into the primate laboratory where they were placed in a supine position on a heated water blanket on a trolley. Ophthalmic ointment was wiped onto each eye, and 0.2 ml lidocaine (2%,) sprayed onto the larynx and over the back of the throat. The Jaws were held apart by a jaw spreader and a cuffed 5.0 gauge endotracheal tube (with the end liberally smeared with xylocaine gel, 2%) was inserted with the aid of laryngoscope. The animal was then placed into a specially designed restraint chair such that the animal was in a slightly reclined but upright sitting position, secured only by a collar at the neck. A water-heated blanket surrounded the animal.
The endotracheal tube was connected to a Harvard Ventilator adjusted to deliver 30-35 breaths per minute. Airflow was measured by a Fleisch pneumotachograph and thoracic pressure was measured by a validyne pressure transducer (as the difference between the pressure at the distal end of the et tube and room pressure).
The pneumotachograph and validyne were connected to a pre-amplifier and then into an MI^2 respiratory analyser. […]
Antigen challenge: This was an inhalation challenge with Ascaris suum. […] 30 breaths of antigen were administered after which the acute bronchoconstriction was monitored for 15 min. […]
Methacholine challenge: Methacholine dose response curves were carried out to assess the airway hyperresponsiveness. In the acute model, this was measured at +24 hour and compared to the responsiveness 7 days before treatment. […] The aerosol was administered for 15 breaths and then lung resistance was monitored for ten minutes. […]

The target of assay [2] is T2, PACAP-R3 (Homo sapiens, UniProt P41587).
T2 sequence (P41587 24-438): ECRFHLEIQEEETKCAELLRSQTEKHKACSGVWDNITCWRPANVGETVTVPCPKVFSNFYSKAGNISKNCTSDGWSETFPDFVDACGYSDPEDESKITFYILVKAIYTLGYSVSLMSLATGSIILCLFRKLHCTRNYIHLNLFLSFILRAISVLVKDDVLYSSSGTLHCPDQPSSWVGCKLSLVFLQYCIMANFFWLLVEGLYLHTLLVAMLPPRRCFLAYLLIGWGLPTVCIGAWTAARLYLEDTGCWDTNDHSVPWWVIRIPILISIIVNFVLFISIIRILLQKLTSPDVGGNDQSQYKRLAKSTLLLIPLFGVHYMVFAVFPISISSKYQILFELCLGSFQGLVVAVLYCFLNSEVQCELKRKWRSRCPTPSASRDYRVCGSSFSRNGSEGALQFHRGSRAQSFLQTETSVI
As to the kind of experiment: Cyclic AMP SPA on CHO cells expressing PACAP R3. The arrangement: expressed in transfected cells; host or cells: CHO cells (Geneticin selection). The format is cell-based. The essentials:
as §1

Assay [3] concerns the target T2, PACAP-R3. Conditions: literature (Gourlet et al., Xia et al.); b170: over R1 and R2; cited from earlier work.

No end group written: not given here. Some results are limits rather than exact numbers.

For the molecule “HSDAVFTDNYTRLRKQVAVKKYLQSIKNKRY [Peptide R3P82]”, the EC50 turned out to be 10 nM on PACAP-R2 and 0.4 nM on PACAP-R3 [2] (cAMP SPA, CHO cells transfected with PACAP-R3, concentration at which 50% of maximum PACAP27 activity is achieved, NA = no detectable activities, read-out: R3 EC50). Besides, the “Delta log10 PC100, Mean, Treated” value in assay [1] was −0.067. In assay [1], the “% Inhibition of induced AHR” value stood at 88%. For the same molecule, the “R3 Selectivity” value on PACAP-R3 [2] (ratio of EC50 at R2 versus EC50 at R3) was 23.
Turning to `CC[C@H](C)[C@H](NC(=O)[C@@H](NC(=O)[C@H](CC(N)=O)NC(=O)[C@H](CC(C)C)NC(=O)[C@H](Cc1ccc(O)cc1)NC(=O)[C@H](Cc1c[nH]cn1)NC(=O)[C@H](CCCCN)NC(=O)[C@H](C)NC(=O)[C@H](C)NC(=O)[C@H](CC(C)C)NC(=O)[C@H](CCC(N)=O)NC(=O)[C@H](CCCCN)NC(=O)[C@H](CCCNC(=N)N)NC(=O)[C@H](CC(C)C)NC(=O)[C@H](CCCNC(=N)N)NC(=O)[C@@H](NC(=O)[C@H](Cc1ccc(O)cc1)NC(=O)[C@H](CCC(N)=O)NC(=O)[C@H](CC(=O)O)NC(=O)[C@@H](NC(=O)[C@H](Cc1ccccc1)NC(=O)[C@@H](NC(=O)[C@H](C)NC(=O)[C@H](CC(=O)O)NC(=O)[C@H](CO)NC(=O)[C@@H](N)Cc1c[nH]cn1)C(C)C)[C@@H](C)O)[C@@H](C)O)[C@@H](C)O)C(=O)N[C@@H](CCCCN)C(=O)N[C@@H](CC(N)=O)C(=O)N[C@@H](CCCCN)C(=O)N[C@@H](CCCNC(=N)N)C(=O)N[C@@H](Cc1ccc(O)cc1)C(=O)O` [Peptide R3P76], at PACAP-R2, the EC50 is > 150 nM. In assay [1], the “Delta log10 PC100, Mean, Treated” value is listed as “+0.047” and the “% Inhibition of induced AHR” value turned out to be 100%.
For the molecule Helodermin, on PACAP-R3 [3], the PACAP-R3 selectivity is ~100 fold.

For orientation: EC50 means the midpoint of the concentration-response curve.
